# Measurements: US8334105B2, “Methods for treating cardiac disease by modifying an N-terminal domain of troponin I” (Northshore University Healthsystem, priority 2004, dated 2012)
# Assays:
# [1] = tested on: isolated working mouse hearts; experiment: Langendorff-Neely isolated working heart preparation
# Procedure: Cardiac function of wild-type and transgenic mice were measured at 5-6 months of age using the Langendorff-Neely isolated working heart preparation, at a constant preload of 10 mmHg and an afterload of 55 mmHg, as previously described (29-31, incorporated herein by reference). Mice were anesthetized as above and the thoracic cavity was opened by a transverse incision to access the heart. Retrograde perfusion through the aorta was initiated within 60 seconds after removal of the heart. After establishing left atrial perfusion, the heart was switched to working mode. The hearts were perfused with Krebs-Henseleit bicarbonate buffer aerated with 95% O2-5% CO2 at 37° C. (pH=7.4). The buffer contents were as follows (in mM): 118 NaCl, 4.7 KCl, 2.25 CaCl2, MgSO4, 1.2 KH2PO4, 0.32 EGTA, 25 NaHCO3, and 11 D-glucose (29). Functions of the isolated working hearts were measured on intrinsic beats at 37° C. with no artificial pacing applied.
# Aortic flow and coronary effluent were collected once every two minutes over a 30-minute period. Heart rate and the maximum rate of pressure development (dP/dt) were measured using an MLT844 pressure transducer (Capto, Horten, Norway) attached to the aortic cannula. […]
# Stroke volume (μL/g heart tissue) was calculated as the sum of aortic flow and coronary effluent, normalized to heart rate. Stroke work (mL-mmHg/g heart tissue) was calculated as stroke volume X average aortic pressure (diastolic pressure+one-third of pulse pressure) (mmHg). During the collection of aortic flow, time to peak pressure (TTP) and the relaxation times (RT) at 10, 50 and 80% total relaxation (RT10, RT50 and RT80, respectively) were measured from the pressure traces. Systolic and diastolic pressure time integrals (STI, correlating with myocardial energy expenditure (31-34), and DTI, correlating with diastolic function and coronary perfusion (35-42), respectively) were calculated by integrating the systolic and diastolic portions of the pressure waves. […]
# [2] = tested on: actomyosin ATPase of mouse cardiac myofibrils; experiment: Actomyosin MgATPase assay of isolated cardiac myofibrils (Ca2+ sensitivity); type: biochemical
# Procedure: Mice were anesthetized with sodium pentobarbital (50 mg/kg body weight, i.p.). Hearts removed from transgenic or control mice were perfused in a retrograde manner, either with normal saline or with saline containing 20 nM isoproterenol. Cardiac myofibrils were prepared according to the method described by Solaro et al. (23, incorporated herein by reference) with modifications. These include the use of NaF (50 mM), EGTA (2.5 mM), and KH2PO4 as phosphatase inhibitors and phenylmethylsulphonyl fluoride (0.2 mM) as a protease inhibitor (24). The ventricular muscle was pulverized in a food blender for 10 seconds in 50 ml buffer containing 0.5% (v/v) Triton X-100®, 60 mM KCl, 30 mM imidazole, pH 7.0, 2 mM MgCl2, and 1 mM DTT, incubated for 5 min and centrifuged at 2,500×g for 2 min. Pellets were washed three times in buffer containing 60 mM KCl, 30 mM imidazole, pH 7.0, 2 mM MgCl2, and 1 mM DTT.
# Actomyosin MgATPase assays were performed to titrate the Ca^2+ sensitivity of the transgenic and wild-type mouse cardiac myofibrils under constant ionic strength, using the stability constants compiled by Fabiato (25), and were performed at pH 7.0 with 50 mM imidazole, 50 mM KCl, and 2 mM MgATP at 37° C. Inorganic phosphate release was measured as the amount of heteropolymolybdenum (26) using an automated microtiter plate reader (Bio-Rad Benchmark) for optical density at 660 nm, as described previously (27, incorporated herein by reference).
# transgenic mouse hearts = experiment: Observation of transgenic mice and hearts for hypertrophy and abnormality; type: in vivo
# Description: Transgenic mice over-expressing various levels of cTnI-ND in the heart are apparently normal in life activities.
Molecule,"−dP/dt produced by isoproterenol treatment in WT hearts ([1]; 10 nM isoproterenol, WT hearts) [mmHg-sec^−1]","effect of isoproterenol on velocity of contraction (+dP/dt) ([1]; 10 nM isoproterenol, WT, INT-cTnI-ND and H-cTnI-ND hearts)","effect of isoproterenol on relaxation velocity ([1]; 30 nM and 50 nM isoproterenol perfusions, all three groups of hearts)","maximum actomyosin ATPase rate with isoproterenol treatment, WT myofibrils ([2]; WT cardiac myofibrils, with isoproterenol treatment) [nmole Pi/mg protein/min]",pCa50 ([2]; myofibrils from isoproterenol perfused WT hearts),"maximum Ca^2+-activated actomyosin ATPase rate ([2]; cTnI-ND cardiac myofibrils, base line) [nmole Pi/mg protein/min]","maximum actomyosin ATPase rate with isoproterenol treatment, cTnI-ND myofibrils ([2]; cTnI-ND cardiac myofibrils, with isoproterenol treatment) [nmole Pi/mg protein/min]","hypertrophy (heart weight/body weight ratio, diameter of cardiac myocytes) (transgenic mouse hearts; compared with wild type controls)",anatomical or histological abnormality of hearts (transgenic mouse hearts; transgenic mouse hearts)
CC(C)NCC(O)c1ccc(O)c(O)c1 (stereo not drawn) [isoproterenol],2087±58,increased in all three groups,significant increases in relaxation velocity,418±57,5.91±0.05,,,,
"cTnI-ND: N-terminus truncated mouse cardiac troponin I that lacks amino acids 1-28, over-expressed in transgenic mouse hearts",,,,,,417±48,421±43,No evidence of hypertrophy,no evidence of anatomical or histological abnormality
